# According to US20070264202A1, “Pharmaceutical Composition Comprising an Isomer of Betamimetic Agent and an Anti-Cholinergic Agent” (CIPLA LIMITED, priority 2004, published 2007):
# Legend:
# beta-adrenoreceptor = conditions: in-vitro studies, salbutamol enantiomers; cited from earlier work
# [1] = cited from earlier work
# [2] = Flow, suspension and dispersion characteristics; assay type: physicochemical; conditions: compared with the racemate
# [3] = compared with the racemate; cited from earlier work
# [4] = tested on: subjects with stable mild to moderate bronchial asthma; assay: Randomized double-blind, single-dose, crossover study of bronchodilator responses via metered dose inhaler; assay type: in vivo; conditions: monitored over 6 hours
# Protocol: A study was conducted to compare bronchodilator responses to levosalbutamol sulphate and racemic salbutamol sulphate administered via metered dose inhaler in a randomized double-blind, single-dose, crossover study. In this study single doses of 100 mcg levosalbutamol sulphate and 200 mcg racemic salbutamol sulphate were administered via MDI in subjects with stable mild to moderate bronchial asthma, who were then monitored over a period of 6 hours. […] Thus, it is clear from the study that a reduced dose of levosalbutamol sulphate is required compared to racemic salbutamol sulphate to have the same therapeutic effect.
molecule,measurement,setting,value
"CC(C)(C)NC[C@@H](O)c1ccc(O)c(CO)c1 (single isomer, unassigned) [S-isomer]",affinity for the beta-adrenoreceptor,beta-adrenoreceptor,markedly less affinity
"COc1ccc(C[C@@H](C)NC[C@H](O)c2ccc(O)c(NC=O)c2)cc1 [R,R formoterol]","activity relative to S,S-isomer or any other available isomer",[1],1000 times
CC(C)(C)NC[C@H](O)c1ccc(O)c(CO)c1 [levosalbutamol],flow property,[2],more free flowing than the racemate
same,suspension and dispersion characteristics,[2],better suspension and dispersion characteristics
same,bronchodilatory effects,[3],greater bronchodilatory effects than the racemate
levosalbutamol sulphate,bronchodilator response,"[4]; single dose 100 mcg via MDI, compared with 200 mcg racemic salbutamol sulphate",equivalent time-dependant bronchodilator responses
salbutamol sulphate [racemic salbutamol sulphate],bronchodilator response,"[4]; single dose 200 mcg via MDI, compared with 100 mcg levosalbutamol sulphate",equivalent time-dependant bronchodilator responses
